Results as given in patent US6979687B1, “Theophylline-based soluble guanylyl cyclase activators KMUP-1 analogues enhanced cyclic GMP and K+ channel activities on rabbit corpus cavernosum smooth muscle and intercavernous pressure activities” (Cho-Jan Liang, priority 2002, dated 2005).
Like-named read-outs stand apart in the source and are kept apart here.

Key:
[1] = tested on: PDE (phosphodiesterase) in human platelets; test: Phosphodiesterase assay, soluble PDE from human platelets, cyclic GMP substrate; type: biochemical; conditions: at 100 μM, n=3
Procedure: Phosphodiesterase assay. Human platelets were isolated from whole blood using 50 mM Tris-HCl containg 5 mM MgCl2 (pH 7.5) and centrifuged to prepare platelet rich plasma. Washed human platelets were resuspended in 50 mM Tris-HCl containg 5 mM MgCl2 (pH 7.5). Platelets were then disrupted by sonicatio, and soluble PDE preparation was obtained by ultracentrifugation 105000 g for 60 min (4° C). […] After 20 min at 37° C., the samples were heated to 100° C. for 2 min. Ophiophagus Hannah snake venom (10 mg/ml, 10 μl) was then added and incubated at 37 C. for 10 min to convert the 5-GMP to the unchanged nucleosides, guanosine. An ion-exchange resin (200 μl) was added to bind all uncoverted cyclic GMP. After centrifuging, the supernatant was removed for determination in a liquid scintillation counter.

[2] = tested on: rabbit corpus cavernosum smooth muscle cells; test: Intracellular cGMP content in rabbit corpus cavernosum smooth muscle cells; type: cell-based; conditions: for cGMP levels: 0.01–10 μM; for cGMP levels / guanosine 3′,5′-cyclic monophosphate levels: in the presence of IBMX (100 μM); for guanosine 3′,5′-cyclic monophosphate levels: 0.1, 1.0, 10, 100 μM
Procedure: (§1) Culture of rabbit corpus cavernosum smooth muscle cells Rabbit corpus cavernosum smooth muscles were obtained as sterile surgical specimens, the tissue was washed and cut into 1 to 2 mm pieces and placed into culture dishes with Dulbecco's modified Eagle's medium (DMEM) containing 20% fetal bovine serum (FBS), penicillin (100 U ml^−1), streptomycin (100 U ml^−1) and 2 mM Glutamine. After explants attached to the culture dish, usually 1 to 2 days, DMEM (Dulbecco's modified Eagle's medium) supplement with 10% FBS, penicillin, streptomycin, and glutamine were added. Smooth muscle cells migrated out from the explants in 3–5 days. At this time, the explants were removed, and cells were allowed to achieve confluence. Cells were detached using 0.05% trypsin, 0.02% EDTA at 37° C. for 5 minutes to establish secondary cultures. Cultures were maintained for no more than 4 passages. Cellular homogeneity was further confirmed by the presence of smooth muscle specific α-myosin and α-actin immunoreactivity. Indirect immunofluorescence staining for a variety of antigens was carried out by first plating the cells on chamber slides fixing the cells in 3.7% formaldehyde-phosphate buffered saline for 10 minutes and permeabilizing the cells with phosphate buffered saline 0.1% Triton X-100. Cells were then stained with either a mouse monoclonal antibody directed against the amino terminal 10 amino acids of α-smooth muscle actin and α-myosin (Moreland R. B. et al., J Urol., 153, 826–834, 1995).
Measurement of intracellular guanosine 3′,5′-cyclic monophosphate content Intracellular cGMP concentrations in rabbit corpus cavernosum smooth muscle cells were assayed as our previously described (Wu et al., 2001). In brief, cells were finally grown in 24-well plates (10^5 cells well^−1). […] Incubation was terminated by the addition of 6% trichloroacetic acid (TCA). Cell suspensions were sonicated and then centrifuged at 2500 g for 15 min at 4° C. Then, the supernatants were lyophilized and cGMP of each sample was determined using a commercially available radioimmunoassay kits (Amersham Pharmacia Biotech, Buckinghamshire, England).
as §1, with “Rabbit CCSMs (corpus” for “Rabbit corpus”, “smooth muscles)” for “smooth muscles”, “DMEM” for “DMEM (Dulbecco's modified Eagle's medium)”, “(Moreland” for “(Moreland R. B.”, “al.,” for “al., J Urol., 153, 826–834,”
Measurement of intracellular cyclic GMP content Intracellular cGMP concentrations in rabbit CCSM cells were assayed as our previously described (Wu et al., 2001). In brief, cells were finally grown in 24-well plates (10^5 cells well^−1). […] Incubation was terminated by the addition of 6% trichloroacetic acid (TCA). Cell suspensions were sonicated and then centrifuged at 2500 g for 15 min at 4° C. […]

[3] = Learning and memory behavioral tasks (Morris water maze, passive inhibitory and active avoidance, rotorod); type: in vivo
Text: Long-term potentiation (LTP) is a potential cellular mechanism underlying learning and memory. Nitric oxide (NO) acts as a retrograde messenger and its downstream effectors are also involved in the modulation of synaptic plasticity in various brain regions such as hippocampus, amygdala, cerebellum, brain stem, cortex etc. Although nitric oxide (NO) is thought to affect synaptic potentiation in various brain regions, the NO-cGMP-PKG pathway involved in memory acquisition in living animals is still unclear. […]. The stimulating parameter which induced long-lasting depression was shifted to a lower frequency by theophylline-based derivative. Furthermore, simultaneous perfusion of theophylline-based derivatives with different concentration of NO donor induced LTP or LTD when the hippocampal slices were stimulated at a frequency as low as 0.02 Hz. The effects of theophylline-based derivative on the behavioral tasks in the following anomal models were examined: Morris water maze, passive inhibitory and active avoidance tests, and rotorod test. […] KMUP-1 injected (1 mg/kg,i.p.) 10 min before the training shortened the escape latency in water maze, increased the retention scores in passive inhibitory avoidance task, decreased the retention time in active avoidance test, and enhanced the motor coorfination in the examination of rotorod. […] YC-1 thus enhanced LTP, learning and memory in an NO-cGMP-PKG-dependent pathway and is a promising drug to enhance learning and memory in human being.

[4] = tested on: intracavernous pressure of rabbits; conditions: for DT, duration of tumescence / ΔICP, peak increased intracavernous pressure: n=8; for intracavernous pressure, dose dependence: 0.2, 0.4, 0.6 mg kg−1 intracavernous
Procedure: Measurement of intracavernous pressure Male rabbits were used for the investigation. After sedation with an intramuscular injection of ketamine (10 mg kg^−1), the rabbits were anaesthetized with intraperitoneal pentobarbital (30 mg kg^−1) and maintained with 10 mg kg^−1 if needed. The animals breathed spontaneously. The rabbits were then placed in the supine position, and the body temperature was maintained at 37° C. The femoral artery was cannulated for continuous monitoring of systemic arterial pressure (SAP) and heart rate (HR) via a pressure transducer (Spectramed, Model P10EZ, U.S.A.). Under sterile conditions, the skin overlying the penis was incised and the corpora cavernosum was exposed at the root of the penis. A 25-gunge needle was inserted into the corpus cavernosum smooth muscles for pressure recording. The needle was connected to a three-way stopcock, thus permitting the intracavernous injection of the drugs. The tube was filled with heparinized saline (50 IU 2 h^−1) to prevent clotting.
Normal saline in increasing volumes (0.05, 0.1, 0.2 ml) was injected in four rabbits as a control group. […] In order to minimize the effect of the previous drug, the cavernous body was flushed with 0.2 ml normal saline before each injection and the time interval between each injection was at least 1.5 h.
Measurement of intracavernous pressure Male rabbits were used for the investigation. After sedation with an intramuscular injection of ketamine (10 mg kg^−1), the rabbits were anaesthetized with intraperitoneal pentobarbital (30 mg kg^−1) and maintained with 10 mg kg^−1 if needed. The animals breathed spontaneously. The rabbits were then placed in the supine position, and the body temperature was maintained at 37° C. The femoral artery was cannulated for continuous monitoring of systemic arterial pressure (SAP) and heart rate (HR) via a pressure transducer (Spectramed, Model P10EZ, U.S.A.). Under sterile conditions, the skin overlying the penis was incised and the corpora cavernosum was exposed at the root of the penis. A 25-gunge needle was inserted into the CCSMs for pressure recording. The needle was connected to a three-way stopcock, thus permitting the intracavernous injection of the drugs. The tube was filled with heparinized saline (50 IU 2 h^−1) to prevent clotting.

[5] = tested on: rabbit corpus cavernosum smooth muscle; test: Rabbit corpus cavernosum smooth muscle relaxation, organ bath; type: cell-based
Text: (§2) Disruption of endothelium The endothelium lining the lacunar spaces of rabbit corpus cavernosum was disrupted and/or removed by detergent treatment using a modification of a protocol for blood vessels, described elsewhere (kim N. et al., J. Clin. Invest., 88, 112–118, 1991). The intact, isolated penis was placed in a tray containing chilled physiological salt solution (PSS). A 21-guage minicatheter was inserted into each corporal body at the proximal end of the penis. A third minicatheter was inserted into the distal end, below the glans penis, where the right and left corpora communicate. While the distal and one proximal minicatheter were clamped, 3 ml of CHAPS (wt vol.^−) in saline was infused into the remaining proximal catheter. After a short interval (˜20 s), the clamped minicatheters were opened and the preparation was washed by infusion of saline. The corpora cavernosa were then removed and tested for endothelial integrity.
Tissue procurement and organ bath experiments Male rabbits were killed with pentobarbital and their penises excised rapidly and cut longitudinally into equal strips to give 3–6 segments. These segments were incubated in Kerbs-bicarbontate solution (NaCl, 118 mM; NaHCO3, 25 mM; KCl, 4.7 mM; KH2PO4, 1.2 mM; MgSO4, 1.2 mM; glucose, 11 mM; CaCl2, 2.5 mM; pH 7.3–7.4) maintained at 37° C. and aerated with 95% O2 and 5% CO2. Isometric tension was recorded with a force displacement transducer (UGO BASILE, Model 7004, Italy). Rabbit corpus cavernosum smooth muscles were stretched to a resting tension of 2 g and then contracted with phenylephrine (PE, 10 μM). Tissues were also treated with guanethidine (10 μM) to block contractions caused by noradrenaline, released from adrenergic neuron, and treated with atropine (1 μM) to prevent muscarinic effects caused by acetylcholine. When the stable constriction to phenylephrine was reached, concentration-response curves to KMUP-1 (0.001–10 μM) were constructed. Data were expressed as a percentage of the maximum contractile response to phenylephrine. To examine the possible action mechanisms of KMUP-1, the rabbit corpus cavernosum smooth muscles were pretreated with sGC (soluble guanylyl cyclase) inhibitors ODQ (1 μM), a NOS (nitric oxide synthase) inhibitor L-NAME (100 μM), a K^+ channel blocker Tetraethylammonium (TEA, 10 mM), a KATP channel blocker glibenclamide (1 μM), a voltage-dependent K^+ channel blocker 4-AP (100 μM) and Ca^2+-dpendent K^+ channel blockers apamin (1 μM) and charybdotoxin (0.1 μM) for 30 min prior to the addition of KMUP-1. To observe whether the rabbits corpus cavernosum smooth muscle relaxation of KMUP-1 are affected by a nonselective PDE (phosphodiesterase) inhibitor, we investigated the action of KMUP-1 in the presence of IBMX (0.5 μM). In another experiment, rabbit corpus cavernosum smooth muscles were preconstricted with 60 mM KCl. The KCl solution was prepared by substituting NaCl with KCl (60 mM) in an equimolar amount.
as §2, with “(kim” for “(kim N.”, “al.,” for “al., J. Clin. Invest., 88, 112–118,”, “vol.^−1)” for “vol.^−)”, “integrity. […]” for “integrity.”

[6] = tested on: rabbit aorta smooth muscle cells; test: cGMP levels in rabbit aorta smooth muscle cells; type: cell-based; conditions: for guanosine 3′,5′-cyclic monophosphate levels: 0.1, 1.0, 10, 100 μM, in the presence of IBMX (100 μM)
[7] = tested on: rabbit aortic rings; test: Relaxation of phenylephrine-precontracted rabbit aortic rings; type: cell-based
[8] = 1 mg/kg i.p. 10 min before the training
[9] = 0.2 mg/kg intracavernous injection
[10] = 0.4 mg/kg intracavernous injection
[11] = 0.6 mg/kg intracavernous injection
[12] = in the presence of IBMX (0.5 μM)
[13] = pretreatments with methylene blue (100 μM) and ODQ (10 μM)

| Structure (SMILES) | inhibition of PDE activity [1] | cGMP levels [2] | DT, duration of tumescence [4, 9] | ΔICP, peak increased intracavernous pressure [4, 9] | DT, duration of tumescence [4, 10] | ΔICP, peak increased intracavernous pressure [4, 10] | DT, duration of tumescence [4, 11] | ΔICP, peak increased intracavernous pressure [4, 11] | intracavernous pressure, dose dependence [4] | relaxant activities in rabbit CCSMs [5] | effect of combination with IBMX on CCSMs relaxations [5] | −log EC50 of relaxation [5, 12] | guanosine 3′,5′-cyclic monophosphate levels [2] | guanosine 3′,5′-cyclic monophosphate levels [6] | also measured |
| --- | --- | --- | --- | --- | --- | --- | --- | --- | --- | --- | --- | --- | --- | --- | --- |
| Cn1c(=O)c2c(ncn2CCN2CCN(c3ccccc3Cl)CC2)n(C)c1=O [KMUP-1, 7-[2-[4-(2-chlorophenyl)piperazinyl]-ethyl]-1,3-dimethylxanthine] | 29±3.1% | increased the cGMP levels | 15 ± 2.24 min | 30 ± 5.25 mmHg | 27 ± 2.05 min | 55 ± 6.21 mmHg | 35 ± 3.45 min | 67 ± 12.32 mmHg | dose-dependent elevations | concentration-dependent relaxant activities | additive effect | 8.65±0.14 |  |  | cGMP levels after ODQ pretreatment ([2]; pretreatment with ODQ (10 μM)): inhibited; escape latency in water maze [3, 8]: shortened; motor coordination in rotorod [3, 8]: enhanced; retention scores in passive inhibitory avoidance task [3, 8]: increased; retention time in active avoidance test [3, 8]: decreased; retention of passive inhibitory avoidance ([3]; given 30 min after foot-shock): did not affect; HR (heart rate) ([4]; rabbit, in vivo): unchanged; SAP (systemic arterial pressure) ([4]; rabbit, in vivo): unchanged; relaxation in endothelium-denuded (EC−) corpus cavernosum smooth muscle ([5]; 0.001–10 μM, endothelium-denuded): concentration-dependent relaxations; −log EC50 of relaxation ([5]; after K+ channel blocker TEA (10 mM)): 5.37±0.05; −log EC50 of relaxation ([5]; after KATP channel blocker glibenclamide (1 μM)): 6.57±0.15; −log EC50 of relaxation ([5]; after NOS inhibitor L-NAME (100 μM)): 6.51±0.08; −log EC50 of relaxation ([5]; after apamin (1 μM)): 5.85±0.11; −log EC50 of relaxation ([5]; after charybdotoxin (0.1 μM)): 5.63±0.09; −log EC50 of relaxation ([5]; after sGC inhibitor ODQ (1 μM)): 6.79±0.12; −log EC50 of relaxation ([5]; after voltage-dependent K+ channel blocker 4-AP (100 μM)): 5.83±0.17; relaxation of corpus cavernosum smooth muscle strips ([5]; at 10 μM): completely relaxed; −log EC50 of relaxation ([5]; endothelium-intact (EC+), phenylephrine (10 μM)-precontracted, no blocker): 7.19±0.09; relaxation in the presence of high K+ ([5]; high K+ (60 mM), 0.001–10 μM): great reduction of relaxation |
| COc1ccccc1N1CCN(CCn2cnc3c2c(=O)n(C)c(=O)n3C)CC1 [KMUP-2, 7-[2-[4-(2-methoxyphenyl)piperazinyl]-ethyl]-1,3-dimethylxanthine] | 21±2.1% |  |  |  |  |  |  |  |  | concentration-dependent relaxant activities | additive effect | 8.37±0.03 | significantly increased | significantly increased | cGMP levels after methylene blue and ODQ pretreatments [2, 13]: significantly inhibited; cGMP levels after methylene blue and ODQ pretreatments [6, 13]: significantly inhibited; −log EC50 of relaxation ([5]; compound alone, IBMX additive experiment (FIG. 6)): 7.58±0.02; −log EC50 of relaxation in aortic rings ([7]; KMUP-2 (0.01, 0.05, 0.1 μM) alone): 5.69±0.02; −log EC50 of relaxation in aortic rings [7, 12]: 6.61±0.12 |
| CCCc1nn(C)c2c(=O)[nH]c(-c3cc(S(=O)(=O)N4CCN(C)CC4)ccc3OCC)nc12 [sildenafil, reference compound] |  | increased the cGMP levels | 19 ± 3.32 min | 28 ± 3.21 mmHg | 24 ± 3.45 min | 32 ± 4.05 mmHg | 28 ± 4.59 min | 40 ± 11.05 mmHg | dose-dependent elevations |  |  |  | significant elevation | significant elevation |  |
